# Results as given in patent publication US9365534B2, “Arylated camphenes, processes for their preparation and uses thereof” (Yissum Research Development Company of the Hebrew …, priority 2009, dated 2016).
# Where “and” joins values, the source holds several entries; their conditions need not be identical. Equal entries are not always repeated.
# Test system: closed head injury (CHI)
# Test: Closed head injury (CHI) model, neurological severity score, C57Bl mice
# Format: in vivo
# Method: The study was conducted according to the guidelines of the Institutional Animal Care Committee of the Hebrew University. Male Sabra mice weighing 35 to 50 g were used in all experiments. Animals were kept under controlled light conditions with a 12 h/12 h light/dark cycle. Experimental closed head injury (CHI) was induced using a modified weight drop device developed in our laboratory as described previously (Chen et al., 1996). At 1 h after CHI, the functional status of the mice was evaluated according to a set of 10 neurobehavioral tasks, namely the neurological severity score (NSS). This score is based on the ability of the mice to perform 10 different tasks (Beni-Adani et al., 2001) that evaluate their motor ability, balance, and alertness. One point is given for failing to perform a task. The severity of injury is indicated by the initial NSS, which is evaluated 1 h after CHI and is also a reliable predictor of the later outcome. A score of 10 reflects maximal neurologic impairment, and a decrease of NSS during the recovery period indicates partial recovery of function.
# Data was analyzed using the Prism 4.02 programme (GraphPad Software, San Deigo, Calif., USA). The data are expressed as mean±SEM and statistical significance was assessed with one way analysis of variance (ANOVA) followed by a Dunnett's post-hoc analysis for TNF-α levels. […]
compound,measurement,setting,value
"CCCCCCC(C)(C)c1cc(OC)c(C2=C[C@H]3CC[C@]2(C(=O)O)C3(C)C)c(OC)c1 [HU-914, (1S,4R)-2-(2,6-dimethoxy-4-(2-methyloctan-2-yl)phenyl)-7,7-dimethylbicyclo[2.2.1]hept-2-ene-1-carboxylic acid]","recovery, Neurological Severity Score (NSS)","HU-914 2.5 and 5 mg/kg i.p., day 14 post injury, vs vehicle or 10 mg/kg",significant greater recovery
same,most effective doses (NSS recovery),"i.p. 1 h after CHI, followed 14 days",2.5 mg/kg and 5 mg/kg
